Reference: ChEMBL document CHEMBL1201862, “PubChem BioAssay data set” (2004)
Activity calls are given as the source filed them.

Legend:
[1] = molecular target: Dual specificity protein kinase CLK1 (Homo sapiens, UniProt P49759); test: inhibition of human CLK1 activity – biochemical, cherry-picked samples, selectivity assay for Dyrk1A inhibitor project, dose response (AID 588811)
[2] = molecular target: Cyclin-dependent kinase 2 (Homo sapiens, UniProt P24941); test: inhibition of human CDK2/cyclin A – biochemical, cherry-picked samples, selectivity assay for Dyrk1A inhibitor project, dose response (AID 602127)
[3] = A Cell Based Secondary Assay to Explore Cytotoxicity in HepG2 Cells of Compounds that Modulate Mycobacterium tuberculosis in Media Containing Glycerol versus Media without Glycerol (2).; assay type: functional
[4] = Vero cell cytotoxicity, cytotoxicity control for M. tuberculosis inhibitor project, purified and synthesized samples, set 3 (AID 504684); assay type: functional
[5] = molecular target: Melanin-concentrating hormone receptor 1 (Homo sapiens, UniProt Q99705); test: Late-stage fluorescence-based counterscreen for antagonists of the G-protein coupled receptor 7 (GPR7): cell-based dose response assay to identify antagonists of the melanin-concentrating hormone receptor 1 (MCHR1) Set 6.; assay type: functional
Chain of Melanin-concentrating hormone receptor 1 (Q99705 whole entry): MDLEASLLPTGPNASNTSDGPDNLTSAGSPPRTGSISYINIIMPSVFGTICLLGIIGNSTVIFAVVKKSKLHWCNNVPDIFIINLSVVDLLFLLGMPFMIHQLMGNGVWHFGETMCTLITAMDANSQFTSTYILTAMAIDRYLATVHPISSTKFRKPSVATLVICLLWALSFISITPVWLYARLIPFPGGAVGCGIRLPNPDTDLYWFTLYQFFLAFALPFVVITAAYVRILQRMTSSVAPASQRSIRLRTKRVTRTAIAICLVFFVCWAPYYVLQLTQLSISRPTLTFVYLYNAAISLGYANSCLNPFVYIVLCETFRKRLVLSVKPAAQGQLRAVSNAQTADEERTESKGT

[6] = molecular target: T1, Neuropeptides B/W receptor type 1 (Homo sapiens, UniProt P48145); test: human NPBW1 receptor blockade, IC50 – cell-based, fluorescence, dose response, set 6, late-stage follow-up (AID 588583); assay type: functional
T1 sequence (P48145 whole entry): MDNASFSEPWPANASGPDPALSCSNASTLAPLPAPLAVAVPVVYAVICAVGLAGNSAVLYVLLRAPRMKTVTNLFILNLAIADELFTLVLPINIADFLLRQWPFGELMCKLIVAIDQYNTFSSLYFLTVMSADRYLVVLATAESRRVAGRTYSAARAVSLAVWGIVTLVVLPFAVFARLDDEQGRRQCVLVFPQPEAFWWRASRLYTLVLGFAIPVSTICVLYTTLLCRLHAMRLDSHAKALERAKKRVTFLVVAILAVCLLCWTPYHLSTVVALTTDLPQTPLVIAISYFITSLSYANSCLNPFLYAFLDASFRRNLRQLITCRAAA

Orexin receptor type 2 [7] = molecular target: T2, Orexin receptor type 2 (Homo sapiens, UniProt O43614); test: Counterscreen assay for antagonists of the orexin 1 receptor (OX1R; HCRTR1): Homogeneous Time Resolved Fluorescence (HTRF)-based cell-based dose response assay for antagonists of the orexin 2 receptor (OX2R; HCRTR2), run by assay provider.; assay type: functional
T2 sequence (O43614 whole entry): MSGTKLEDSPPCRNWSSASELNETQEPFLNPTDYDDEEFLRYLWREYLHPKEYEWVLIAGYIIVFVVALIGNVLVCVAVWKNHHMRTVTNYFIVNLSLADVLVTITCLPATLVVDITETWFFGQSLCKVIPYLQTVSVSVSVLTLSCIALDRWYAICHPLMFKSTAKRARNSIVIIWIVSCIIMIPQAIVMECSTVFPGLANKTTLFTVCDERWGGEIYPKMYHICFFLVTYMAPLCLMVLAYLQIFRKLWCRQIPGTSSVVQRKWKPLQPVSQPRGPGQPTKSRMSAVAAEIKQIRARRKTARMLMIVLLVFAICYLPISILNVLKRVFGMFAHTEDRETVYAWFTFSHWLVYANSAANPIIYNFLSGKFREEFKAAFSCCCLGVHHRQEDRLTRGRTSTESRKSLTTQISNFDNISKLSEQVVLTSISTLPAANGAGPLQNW

CHO-K1 = test: (§1) Counterscreen for antagonists of the orexin 1 receptor (OX1R; HCRTR1): Homogeneous time resolved fluorescence (HTRF)-based cell-based dose response assay to identify antagonists of the parental CHO-K1 cell line. [Related pubchem assays (depositor defined):AID434989, AID435008, AID463079, AID485270, AID492963, AID492964, AID492965, AID493232, AID504699, AID504701]; assay type: functional; conditions: Cricetulus griseus
BJ [8] = test: BJ-TERT-LT-ST fibroblast viability loss – cell-based, RAS-independent, luminescence, dose response (AID 1935); assay type: functional; conditions: Homo sapiens;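 also: BJ fibroblasts immortalized with TERT plus LT and ST oncogenes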
BJ [9] = test: cells; assay type: functional, cell-based; conditions: Homo sapiens
[10] = molecular target: T3, Orexin/Hypocretin receptor type 1 (Homo sapiens, UniProt O43613); test: Homogeneous Time Resolved Fluorescence (HTRF)-based cell-based high throughput dose response assay for antagonists of the orexin 1 receptor (OX1R; HCRTR1). [Related pubchem assays (depositor defined):AID434989, AID435008, AID463079, AID485270, AID492963, AID492964, AID492965, AID493232, AID504717, AID504718]; assay type: functional
T3 sequence (O43613 whole entry): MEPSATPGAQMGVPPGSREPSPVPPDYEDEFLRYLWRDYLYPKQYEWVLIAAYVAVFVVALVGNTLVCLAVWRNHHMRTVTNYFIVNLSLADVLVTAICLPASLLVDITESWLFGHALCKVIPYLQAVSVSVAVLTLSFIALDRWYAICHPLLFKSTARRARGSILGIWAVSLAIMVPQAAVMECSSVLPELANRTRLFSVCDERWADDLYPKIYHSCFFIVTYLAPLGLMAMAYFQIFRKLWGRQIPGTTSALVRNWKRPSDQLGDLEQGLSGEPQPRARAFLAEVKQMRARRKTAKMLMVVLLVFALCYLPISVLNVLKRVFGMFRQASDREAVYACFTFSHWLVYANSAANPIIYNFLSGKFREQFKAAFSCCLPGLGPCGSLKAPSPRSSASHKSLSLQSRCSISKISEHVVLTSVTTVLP

[11] = viability loss in Vero cells – cytotoxicity control for Vif-APOBEC3G degradation inhibitor project, dose response (AID 1117358); assay type: functional; conditions: Vero
BJ [12] = test: BJ-TERT fibroblast viability loss – cell-based, RAS-independent, luminescence, dose response (AID 1933); assay type: functional; conditions: Homo sapiens
[13] = molecular target: T3, Orexin/Hypocretin receptor type 1; test: Fluorescence-based cell-based high throughput dose response assay for antagonists of the orexin 1 receptor (OX1R; HCRTR1). [Related pubchem assays (depositor defined):AID434989, AID435008, AID463079, AID485270, AID492963, AID492964, AID492965, AID493232, AID504717, AID504718]; assay type: functional
[14] = DRD fibroblast viability loss – cell-based, non-viral oncogenic, luminescence, dose response (AID 1934); assay type: functional; conditions: Homo sapiens
Orexin receptor type 2 [15] = molecular target: T2, Orexin receptor type 2; test: Counterscreen assay for antagonists of the orexin 1 receptor (OX1R; HCRTR1): Fluorescence-based cell-based dose response assay for antagonists of the orexin 2 receptor (OX2R; HCRTR2), run by assay provider.; assay type: functional
[16] = as §1, with “Fluorescence-based” for “Homogeneous time resolved fluorescence (HTRF)-based”, “cell-based high throughput” for “cell-based”, “CHO” for “CHO-K1”; assay type: functional
[17] = molecular target: T4, DNA dC->dU-editing enzyme APOBEC-3G (Homo sapiens, UniProt Q9HC16); test: SAR analysis of small molecule inhibitors of APOBEC3G DNA Deaminase via a fluorescence-based single-stranded DNA deaminase assay - Set 2.; assay type: functional; conditions: read-out: IC50_Mean
T4 sequence (Q9HC16 whole entry): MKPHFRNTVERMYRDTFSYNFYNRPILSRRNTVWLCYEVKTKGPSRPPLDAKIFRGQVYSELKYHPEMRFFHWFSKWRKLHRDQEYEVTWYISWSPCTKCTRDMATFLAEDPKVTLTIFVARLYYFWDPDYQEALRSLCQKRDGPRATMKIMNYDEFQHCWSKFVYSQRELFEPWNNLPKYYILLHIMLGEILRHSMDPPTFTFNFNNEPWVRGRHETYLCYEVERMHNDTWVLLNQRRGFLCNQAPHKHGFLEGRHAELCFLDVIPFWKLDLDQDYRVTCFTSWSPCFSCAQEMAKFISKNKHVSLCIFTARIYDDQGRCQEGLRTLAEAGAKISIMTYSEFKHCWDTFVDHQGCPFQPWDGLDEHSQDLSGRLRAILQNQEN

[18] = molecular target: T4, DNA dC->dU-editing enzyme APOBEC-3G; test: inhibition of APOBEC3G ssDNA deamination – biochemical, fluorescence, single-stranded DNA substrate, SAR follow-up (AID 602136); assay type: functional; conditions: read-out: IC50_Mean
[19] = molecular target: T5, DNA dC->dU-editing enzyme APOBEC-3A (Homo sapiens, UniProt P31941); test: Dose Response confirmation of small molecule APOBEC3A DNA Deaminase Inhibitors via a fluorescence-based single-stranded DNA deaminase assay. [Related pubchem assays (depositor defined):AID493011, AID493024]; assay type: functional
T5 sequence (P31941 whole entry): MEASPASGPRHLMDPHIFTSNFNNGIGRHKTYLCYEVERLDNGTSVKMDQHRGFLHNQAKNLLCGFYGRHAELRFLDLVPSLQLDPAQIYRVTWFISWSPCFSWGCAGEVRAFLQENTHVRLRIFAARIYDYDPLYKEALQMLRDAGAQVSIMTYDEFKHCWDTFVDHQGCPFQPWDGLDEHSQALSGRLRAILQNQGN

[20] = molecular target: T4, DNA dC->dU-editing enzyme APOBEC-3G; assay type: functional
[21] = molecular target: T5, DNA dC->dU-editing enzyme APOBEC-3A; test: SAR analysis of small molecule inhibitors of APOBEC3A DNA Deaminase via a fluorescence-based single-stranded DNA deaminase assay.; assay type: functional; conditions: read-out: IC50_Mean
[22] = molecular target: T5, DNA dC->dU-editing enzyme APOBEC-3A; test: SAR analysis of small molecule inhibitors of APOBEC3A DNA Deaminase via a fluorescence-based single-stranded DNA deaminase assay - Set 2.; assay type: functional; conditions: read-out: IC50_Mean
[23] = molecular target: Low molecular weight phosphotyrosine protein phosphatase (Homo sapiens, UniProt P24666); assay type: functional; conditions: read-out: IC50_Mean;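 also: Dose-response confirmation assay measuring inhibition of LMPTP enzyme activity by fluorescence intensity read-out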
Chain of Low molecular weight phosphotyrosine protein phosphatase (P24666 whole entry): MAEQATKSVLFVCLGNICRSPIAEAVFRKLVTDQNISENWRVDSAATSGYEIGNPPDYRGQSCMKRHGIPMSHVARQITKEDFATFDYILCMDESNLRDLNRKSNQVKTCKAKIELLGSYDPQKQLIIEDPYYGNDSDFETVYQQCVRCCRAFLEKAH

Estrogen receptor beta = Estrogen receptor beta (Homo sapiens, UniProt Q92731); test: blockers of SRC-3 recruitment to ERβ – biochemical, ELISA, streptavidin-HRP readout, orthogonal assay, confirmation (AID 1060)
Chain of Estrogen receptor beta (Q92731 whole entry): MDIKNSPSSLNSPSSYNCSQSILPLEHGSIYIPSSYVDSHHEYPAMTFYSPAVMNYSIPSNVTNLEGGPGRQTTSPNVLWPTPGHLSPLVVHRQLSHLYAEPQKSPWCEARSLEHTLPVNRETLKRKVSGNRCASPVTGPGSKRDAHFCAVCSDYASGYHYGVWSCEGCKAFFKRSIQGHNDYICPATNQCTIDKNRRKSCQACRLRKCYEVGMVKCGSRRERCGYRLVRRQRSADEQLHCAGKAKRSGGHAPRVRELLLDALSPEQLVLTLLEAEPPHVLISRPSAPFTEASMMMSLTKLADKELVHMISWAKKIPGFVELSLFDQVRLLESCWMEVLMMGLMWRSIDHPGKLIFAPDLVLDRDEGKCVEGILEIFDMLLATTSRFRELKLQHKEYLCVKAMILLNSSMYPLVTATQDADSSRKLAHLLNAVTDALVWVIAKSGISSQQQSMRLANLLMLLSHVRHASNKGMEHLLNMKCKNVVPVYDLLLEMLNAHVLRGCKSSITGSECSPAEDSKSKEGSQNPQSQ

[24] = molecular target: Sphingosine 1-phosphate receptor 1 (Homo sapiens, UniProt P21453); test: Late-stage fluorescence-based dose-response cell-based counterscreen assay to identify agonists of the Sphingosine 1-Phosphate Receptor 4 (S1P4): Sphingosine 1-Phosphate Receptor 1 (S1P1) agonist assay Set 2.; assay type: functional
Chain of Sphingosine 1-phosphate receptor 1 (P21453 whole entry): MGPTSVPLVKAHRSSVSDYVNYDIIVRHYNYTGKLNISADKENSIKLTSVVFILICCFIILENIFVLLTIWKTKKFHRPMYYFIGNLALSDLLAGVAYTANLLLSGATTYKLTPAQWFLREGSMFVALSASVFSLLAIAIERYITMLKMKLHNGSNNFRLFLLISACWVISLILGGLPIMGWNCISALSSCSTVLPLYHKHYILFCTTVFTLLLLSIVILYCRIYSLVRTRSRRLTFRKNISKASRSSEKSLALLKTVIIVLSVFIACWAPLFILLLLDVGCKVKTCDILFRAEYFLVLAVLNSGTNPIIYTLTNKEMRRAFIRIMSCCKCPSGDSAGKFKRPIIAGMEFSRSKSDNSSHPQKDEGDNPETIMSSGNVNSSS

[25] = molecular target: Sphingosine 1-phosphate receptor 3 (Homo sapiens, UniProt Q99500); test: Late-stage fluorescence-based dose-response cell-based counterscreen assay to identify agonists of the Sphingosine 1-Phosphate Receptor 4 (S1P4): Sphingosine 1-Phosphate Receptor 3 (S1P3) agonist assay Set 2.; assay type: functional
Chain of Sphingosine 1-phosphate receptor 3 (Q99500 whole entry): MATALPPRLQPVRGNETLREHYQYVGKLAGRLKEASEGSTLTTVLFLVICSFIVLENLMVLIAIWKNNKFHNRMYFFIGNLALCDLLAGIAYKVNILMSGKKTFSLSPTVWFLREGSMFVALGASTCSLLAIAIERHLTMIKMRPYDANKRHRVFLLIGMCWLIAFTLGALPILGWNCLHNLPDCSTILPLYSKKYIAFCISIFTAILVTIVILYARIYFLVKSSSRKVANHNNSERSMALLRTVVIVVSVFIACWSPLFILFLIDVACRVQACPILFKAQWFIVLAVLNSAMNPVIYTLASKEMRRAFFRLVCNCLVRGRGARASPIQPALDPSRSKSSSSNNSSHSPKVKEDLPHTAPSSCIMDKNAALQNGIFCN

[26] = molecular target: Sphingosine 1-phosphate receptor 2 (Homo sapiens, UniProt O95136); test: activation of human S1P2 receptor – cell-based, fluorescence, set 2, counter-screen for S1P4 agonist project, late-stage follow-up (AID 504873); assay type: functional
Chain of Sphingosine 1-phosphate receptor 2 (O95136 whole entry): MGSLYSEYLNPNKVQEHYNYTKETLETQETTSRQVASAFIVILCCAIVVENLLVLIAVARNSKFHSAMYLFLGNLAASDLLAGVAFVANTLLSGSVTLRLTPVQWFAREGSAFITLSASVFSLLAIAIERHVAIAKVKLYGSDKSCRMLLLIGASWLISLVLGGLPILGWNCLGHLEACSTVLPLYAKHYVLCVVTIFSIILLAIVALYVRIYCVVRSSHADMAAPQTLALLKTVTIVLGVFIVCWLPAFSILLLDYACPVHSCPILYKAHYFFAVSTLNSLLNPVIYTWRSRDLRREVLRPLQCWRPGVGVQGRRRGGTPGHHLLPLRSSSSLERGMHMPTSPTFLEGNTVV

[27] = molecular target: Sphingosine 1-phosphate receptor 5 (Homo sapiens, UniProt Q9H228); test: activation of human S1P5 receptor – cell-based, fluorescence, set 2, counter-screen for S1P4 agonist project, late-stage follow-up (AID 504867); assay type: functional
Chain of Sphingosine 1-phosphate receptor 5 (Q9H228 whole entry): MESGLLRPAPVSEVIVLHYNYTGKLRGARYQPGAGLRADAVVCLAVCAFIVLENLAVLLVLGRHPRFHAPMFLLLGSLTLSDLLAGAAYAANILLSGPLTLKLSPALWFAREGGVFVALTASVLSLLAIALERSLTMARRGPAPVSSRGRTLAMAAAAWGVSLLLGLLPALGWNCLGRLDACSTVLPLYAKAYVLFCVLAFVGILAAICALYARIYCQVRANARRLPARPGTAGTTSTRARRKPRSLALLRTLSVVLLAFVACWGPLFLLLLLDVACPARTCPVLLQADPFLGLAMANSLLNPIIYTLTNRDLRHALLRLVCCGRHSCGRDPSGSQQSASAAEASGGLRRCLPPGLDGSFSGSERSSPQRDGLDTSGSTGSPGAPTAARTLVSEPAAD

Chain of Dual specificity protein kinase CLK1 (P49759 whole entry): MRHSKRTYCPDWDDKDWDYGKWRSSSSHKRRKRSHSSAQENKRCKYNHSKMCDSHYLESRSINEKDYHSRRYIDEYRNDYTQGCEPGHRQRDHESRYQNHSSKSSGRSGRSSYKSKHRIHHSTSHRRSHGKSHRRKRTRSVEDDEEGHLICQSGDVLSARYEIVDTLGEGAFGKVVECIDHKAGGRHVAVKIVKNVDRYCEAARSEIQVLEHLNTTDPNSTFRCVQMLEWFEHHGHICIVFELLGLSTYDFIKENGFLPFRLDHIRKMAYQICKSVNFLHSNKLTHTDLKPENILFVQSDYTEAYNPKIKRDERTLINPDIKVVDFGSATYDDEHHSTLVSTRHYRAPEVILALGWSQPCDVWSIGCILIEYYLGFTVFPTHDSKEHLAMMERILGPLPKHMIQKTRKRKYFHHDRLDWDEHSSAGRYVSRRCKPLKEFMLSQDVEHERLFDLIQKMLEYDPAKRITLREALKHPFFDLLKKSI

Q: For `c1cncc(CNc2nccc(-c3ccc4c(c3)OCO4)n2)c1`, which AC50 [1] is on record?
A: 0.00791 µM (active)

Q: What about the AC50 [2] of the same compound?
A: 14.3 µM (active)

Q: For `O=C(/C=C\c1cccs1)N1CCN(Cc2ccc3c(c2)OCO3)CC1`, which CC50 [3] is on record?
A: > 50 µM (active)

Q: And the CC50 [4]?
A: > 100 µM (active)

Q: Which results are given for `N#CC(c1c(Cl)cnn(Cc2cccc3ccccc23)c1=O)c1coc2ccccc12` (centres undefined)?
A: IC50 [5]: 0.294 µM (active); IC50 [6]: 0.294 µM (active)

Q: With `Cc1nn(-c2ccccc2)c(C)c1/C=N/NC(=O)c1cc(-c2ccccc2)[nH]n1` as the compound, how does the IC50 (Orexin receptor type 2 [7]) read?
A: 18.8 µM (inactive)

Q: And the IC50 (CHO-K1)?
A: > 66.2 µM (inactive)

Q: And the EC50 (BJ [8])?
A: > 150 µM (inconclusive)

Q: What about the EC50 (BJ [9]) of the same compound?
A: 37.5 µM (inconclusive)

Q: What about the IC50 [10] of the same compound?
A: 1.75 µM (active)

Q: And the CC50 [11]?
A: 8.77 µM (active)

Q: What about the EC50 (BJ [12]) of the same compound?
A: 0.308 µM (active)

Q: And the IC50 [13]?
A: 3.67 µM (active)

Q: And the EC50 [14]?
A: 0.659 µM (inconclusive)

Q: And the IC50 (Orexin receptor type 2 [15])?
A: 20.6 µM (inactive)

Q: What about the IC50 [16] of the same compound?
A: > 49.8 µM (inactive)

Q: Which IC50 [17] does the source give for `O=C(NCc1ccc2c(c1)OCO2)c1cc2ncc(Br)cn2n1` here?
A: 73.1 µM (inactive)

Q: What about the IC50 [18] of the same compound?
A: 35 µM (inactive)

Q: What about the IC50 [19] of the same compound?
A: 9.82 µM (active)

Q: And the IC50 [20]?
A: 56.5 µM (active)

Q: And the IC50 [21]?
A: 20.3 µM (inactive)

Q: And the IC50 [22]?
A: 21.1 µM (inactive)

Q: And the IC50 [23]?
A: 37.4 µM (inactive)

Q: What about the IC50 (Estrogen receptor beta) of the same compound?
A: 0.363 µM (not active)

Q: For `C/N=C1/SC(=Cc2cc(C)n(Cc3ccc(F)cc3F)c2C)C(=O)N1C`, which EC50 [24] is on record?
A: 0.287 µM (active)

Q: And the EC50 [25]?
A: > 25 µM (inactive)

Q: What about the EC50 [26] of the same compound?
A: 13.1 µM (inactive)

Q: What about the EC50 [27] of the same compound?
A: 0.0371 µM (active)
